Results from patent publication US12384789B2, “Compounds for treating Huntington's disease” (PTC Therapeutics, Inc., priority 2017, dated 2025).

Tested on: Endogenous Huntingtin Protein
Assay: Endogenous Huntingtin Protein Assay (Meso Scale Discovery ELISA-based electrochemiluminescence)
Format: cell-based
Settings: MSD electrochemiluminescence, Table 1
Protocol: Compounds of Formula (I) were tested using the Meso Scale Discovery (MSD) Assay provided in International Application No. PCT/US2016/066042, filed on Dec. 11, 2016 and claiming priority to United States Provisional Application U.S. 62/265,652 filed on Dec. 10, 2015, the entire contents of which are incorporated herein by reference.
The Endogenous Huntingtin Protein assay used in Example 1 was developed using the ELISA-based MSD electrochemiluminescence assay platform.
Endogenous Huntingtin Protein Assay
Meso Scale Discovery (MSD) 96-well or 384-well plates were coated overnight at 4° C. with MW1 (expanded polyglutamine) or MAB2166 monoclonal antibody (for capture) at a concentration of 1 μg/mL in PBS (30 μL per well). Plates were then washed three times with 300 μL wash buffer (0.05% Tween-20 in PBS) and blocked (100 μL blocking buffer; 5% BSA in PBS) for 4-5 hours at room temperature with rotational shaking and then washed three times with wash buffer.
Samples (25 μL) were transferred to the antibody-coated MSD plate and incubated overnight at 4° C. After removal of the lysates, the plate was washed three times with wash buffer, and 25 μL of #5656S (Cell signaling; rabbit monoclonal) secondary antibody (diluted to 0.25 μg/mL in 0.05% Tween-20 in blocking buffer) was added to each well and incubated with shaking for 1 Hour at room temperature. Following incubation with the secondary antibody, the wells were rinsed with wash buffer after which 25 μL of goat anti-rabbit SULFO TAG secondary detection antibody (required aspect of the MSD system) (diluted to 0.25 μg/mL in 0.05% Tween-20 in blocking buffer) was added to each well and incubated with shaking for 1 hour at room temperature. After rinsing three times with wash buffer, 150 μL of read buffer T with surfactant (MSD) were added to each empty well, and the plate was imaged on a SI 6000 imager (MSD) according to manufacturers' instructions provided for 96- or 384-well plates.

SMILES	IC50 [nM]
Cc1cc(-c2cc(F)c3cc(C4C[C@@H](C)N(C)[C@@H](C)C4)nnc3c2)nc2cn(C)nc12 (stereo partly drawn) [Compound 227, 7-(2,7-dimethyl-2H-pyrazolo[4,3-b]pyridin-5-yl)-5-fluoro-3-((2S,4R,6R)-1,2,6-trimethylpiperidin-4-yl)cinnoline]	≤ 100
Cc1cn2cc(-c3nnc4cc(C5CCNCC5)ccc4n3)cc(C)c2n1 [Compound 27, 3-(2,8-dimethylimidazo[1,2-a]pyridin-6-yl)-7-(piperidin-4-yl)-1,2,4-benzotriazine]	100 to 500
Cc1cn2nc(-c3cc(F)c4cc(N5C[C@@H](C)N[C@@H](C)C5)nnc4c3)cc(C)c2n1 [Compound 81, 7-(2,8-dimethylimidazo[1,2-b]pyridazin-6-yl)-3-[(3R,5S)-3,5-dimethylpiperazin-1-yl]-5-fluorocinnoline]	≤ 100
Cc1cc(-c2ccc3nc(C4CCNCC4)ccc3c2)cc2cn(C)nc12 [Compound 15, 6-(2,7-dimethyl-2H-indazol-5-yl)-2-(piperidin-4-yl)quinoline]	≤ 100
Cc1cc(-c2cc(F)c3nc(C4CCNCC4)ccc3c2)cc2cn(C)nc12 [Compound 20, 6-(2,7-dimethyl-2H-indazol-5-yl)-8-fluoro-2-(piperidin-4-yl)quinoline]	≤ 100
CN1CCC(c2ccc3cc(-c4ccc5nn(C)cc5c4)ccc3n2)CC1 [Compound 6, 6-(2-methyl-2H-indazo1-5-yl)-2-(1-methylpiperidin-4-yl)quinoline]	500 to 1000
CCN1CCC(c2cc3c(F)cc(-c4cc(C)c5nn(C)cc5n4)cc3nn2)CC1 [Compound 164, 7-(2,7-dimethyl-2H-pyrazolo[4,3-b]pyridin-5-yl)-3-(1-ethylpiperidin-4-yl)-5-fluorocinnoline]	≤ 100
Cc1nc2c(F)cc(-c3cc(F)c4nc(C5CCNCC5)nnc4c3)cc2o1 [Compound 68, 5-fluoro-7-(4-fluoro-2-methyl-1,3-benzoxazol-6-yl)-3-(piperidin-4-yl)-1,2,4-benzotriazine]	≤ 100
Cc1cc(-c2cc(F)c3nc(C4CCNCC4)ncc3c2)cc2cn(C)nc12 [Compound 34, 6-(2,7-dimethyl-2H-indazol-5-yl)-8-fluoro-2-(piperidin-4-yl)quinazoline]	≤ 100
CC[C@H]1CC(c2cc3c(F)cc(-c4cc(C)c5nc(C)cn5n4)cc3nn2)C[C@H](CC)N1C (stereo partly drawn) [Compound 131, 3-[(2S,6S)-2,6-diethyl-1-methylpiperidin-4-yl]-7-(2,8-dimethylimidazo[1,2-b]pyridazin-6-yl)-5-fluorocinnoline]	≤ 100
CCc1cc(-c2cc(F)c3cc(C4CCN(CC)CC4)nnc3c2)nc2cn(C)nc12 [Compound 174, 7-(7-ethyl-2-methyl-2H-pyrazolo[4,3-b]pyridin-5-yl)-3-(1-ethylpiperidin-4-yl)-5-fluorocinnoline]	≤ 100
Cn1cc2cc(-c3cc(F)c4nc(C5CCNCC5)ncc4c3)cc(F)c2n1 [Compound 36, 8-fluoro-6-(7-fluoro-2-methyl-2H-indazol-5-yl)-2-(piperidin-4-yl)quinazoline]	≤ 100
Cc1cn2cc(-c3nnc4cc(C5CCNCC5)cc(F)c4n3)cc(C)c2n1 [Compound 40, 3-(2,8-dimethylimidazo[1,2-a]pyridin-6-yl)-5-fluoro-7-(piperidin-4-yl)-1,2,4-benzotriazine]	100 to 500
CCN1CCC(c2cc3c(F)cc(-c4nc5c(C)nc(C)cc5o4)cc3nn2)CC1 [Compound 136, 7-(4,6-dimethyl[1,3]oxazolo[4,5-c]pyridin-2-yl)-3-(1-ethylpiperidin-4-yl)-5-fluorocinnoline]	≤ 100
Cc1cc(-c2cc3c(F)cc(C4=CCCNCC4)cc3nn2)cc2cn(C)nc12 [Compound 198, 3-(2,7-dimethyl-2H-indazol-5-yl)-5-fluoro-7-(2,3,6,7-tetrahydro-1H-azepin-4-yl)cinnoline]	100 to 500
Cc1nc(-c2cc(F)c3nc(C4CCNCC4)nnc3c2)cc2cn(C)nc12 [Compound 67, 7-(2,7-dimethyl-2H-pyrazolo[3,4-c]pyridin-5-yl)-5-fluoro-3-(piperidin-4-yl)-1,2,4-benzotriazine]	100 to 500
Cc1cn2nc(-c3cc(F)c4cc(C5CC6CC[C@@H](C5)N6)nnc4c3)cc(C)c2n1 (stereo partly drawn) [Compound 169, 3-[(1R,3r,5S)-8-azabicyclo[3.2.1]octan-3-yl]-7-(2,8-dimethylimidazo[1,2-b]pyridazin-6-yl)-5-fluorocinnoline]	≤ 100
Cc1nc2c(C)cc(-c3cc(F)c4cc(C5C[C@@H](C)N(C)[C@@H](C)C5)nnc4c3)nc2o1 (stereo partly drawn) [Compound 226, 5-(5-fluoro-3-((2S,4R,6R)-1,2,6-trimethylpiperidin-4-yl)cinnolin-7-yl)-2,7-dimethyloxazolo[5,4-b]pyridine]	≤ 100
Cc1cc(-c2ccc3nc(C4=CC(C)(C)NC(C)(C)C4)ccc3c2)cc2cn(C)nc12 [Compound 13, 6-(2,7-dimethyl-2H-indazol-5-yl)-2-(2,2,6,6-tetramethyl-1,2,3,6-tetrahydropyridin-4-yl)quinoline]	1000 to 3000
Cc1cn2cc(-c3nnc4cc(C5CCNCC5)cc(F)c4n3)cc(F)c2n1 [Compound 41, 5-fluoro-3-(8-fluoro-2-methylimidazo[1,2-a]pyridin-6-yl)-7-(piperidin-4-yl)-1,2,4-benzotriazine]	100 to 500
Cc1cc(-c2cc(F)c3cc(C4CCNCC4)ncc3c2)cc2cn(C)nc12 [Compound 71, 7-(2,7-dimethyl-2H-indazol-5-yl)-5-fluoro-3-(piperidin-4-yl)isoquinoline]	≤ 100

Other lines, results leading:

IC50 [nM]	SMILES
100 to 500	Cc1cn2nc(-c3cc(F)c4cc(C5CCNCC5)nnc4c3)cc(OCCCn3ccnc3)c2n1 [Compound 142, 5-fluoro-7-{8-[3-(1H-imidazol-1-yl)propoxy]-2-methylimidazo[1,2-b]pyridazin-6-yl}-3-(piperidin-4-yl)cinnoline]
≤ 100	Cc1cn2nc(-c3cc(F)c4nc(C5CCNCC5)cnc4c3)cc(C)c2n1 [Compound 82, 6-(2,8-dimethylimidazo[1,2-b]pyridazin-6-yl)-8-fluoro-2-(piperidin-4-yl)quinoxaline]
≤ 100	Cc1cn2nc(-c3cc(F)c4cc(C5CCNCC5)nnc4c3)cc(C3CC3)c2n1 [Compound 112, 7-(8-cyclopropyl-2-methylimidazo[1,2-b]pyridazin-6-yl)-5-fluoro-3-(piperidin-4-yl)cinnoline]
≤ 100	Cc1cn2nc(-c3cc(F)c4cc(C5CCNCC5)nnc4c3)cc(CO)c2n1 [Compound 107, {6-[5-fluoro-3-(piperidin-4-yl)cinnolin-7-yl]-2-methylimidazo[1,2-b]pyridazin-8-yl}methanol]
≤ 100	Cc1cn2nc(-c3cc(F)c4cc(C5CCNCC5)nnc4c3)cc(OCCCn3cccn3)c2n1 [Compound 141, 5-fluoro-7-{2-methyl-8-[3-(1H-pyrazol-1-yl)propoxy]imidazo[1,2-b]pyridazin-6-yl}-3-(piperidin-4-yl)cinnoline]
≤ 100	Cc1cn2nc(-c3ccc4cc(C5CCNCC5)nnc4c3)cc(C)c2n1 [Compound 84, 7-(2,8-dimethylimidazo[1,2-b]pyridazin-6-yl)-3-(piperidin-4-yl)cinnoline]
≤ 100	Cc1cn2nc(-c3cc(F)c4cc(C5CCN(CCn6cnc7ccccc76)CC5)nnc4c3)cc(C)c2n1 [Compound 159, 3-{1-[2-(1H-benzimidazol-1-yl)ethyl]piperidin-4-yl}-7-(2,8-dimethylimidazo[1,2-b]pyridazin-6-yl)-5-fluorocinnoline]
≤ 100	Cc1cn2nc(-c3cc(F)c4cc(C5CCN(CCCn6cnc7ccccc76)CC5)nnc4c3)cc(C)c2n1 [Compound 145, 3-{1-[3-(1H-benzimidazol-1-yl)propyl]piperidin-4-yl}-7-(2,8-dimethylimidazo[1,2-b]pyridazin-6-yl)-5-fluorocinnoline]
100 to 500	Cc1nc2ccc(-c3cc(F)c4cc(C5CCNCC5)nnc4c3)cn2n1 [Compound 94, 5-fluoro-7-(2-methyl[1,2,4]triazolo[1,5-a]pyridin-6-yl)-3-(piperidin-4-yl)cinnoline]
≤ 100	CCN1CCC(c2cc3c(F)cc(-c4cc(C)c5nc(C)cn5n4)cc3nn2)CC1 [Compound 76, 7-(2,8-dimethylimidazo[1,2-b]pyridazin-6-yl)-3-(1-ethylpiperidin-4-yl)-5-fluorocinnoline]
≤ 100	Cc1cn2cc(-c3cc(F)c4cc(C5CCNCC5)nnc4c3)ccc2n1 [Compound 210, 5-fluoro-7-(2-methylimidazo[1,2-a]pyridin-6-yl)-3-(piperidin-4-yl)cinnoline]
≤ 100	CCN1CCC(c2cc3c(F)cc(-c4cc(Oc5ccccc5)c5nc(C)cn5n4)cc3nn2)CC1 [Compound 200, 3-(1-ethylpiperidin-4-yl)-5-fluoro-7-(2-methyl-8-phenoxyimidazo[1,2-b]pyridazin-6-yl)cinnoline]
≤ 100	Cc1cn2nc(-c3cc(F)c4cc(C5CCN(CCN(C)C)CC5)nnc4c3)cc(C)c2n1 [Compound 127, 2-{4-[7-(2,8-dimethylimidazo[1,2-b]pyridazin-6-yl)-5-fluorocinnolin-3-yl]piperidin-1-yl}-N,N-dimethylethan-1-amine]
